Results taken from ChEMBL document CHEMBL5356974, “Development of MPS1 Inhibitors: Recent Advances and Perspectives” (J Med Chem, 2023).

Columns and labels:
[1] = biological target: T1, Dual specificity protein kinase TTK (Homo sapiens, UniProt P33981); assay: Inhibition of full-length MPS1 (unknown origin) using fluorescein-labeled MBP-derived peptide as substrate preincubated for 1 hr followed by substrate addition measured after 2 hrs in presence of ATP by FP assay
T1 sequence (P33981 whole entry): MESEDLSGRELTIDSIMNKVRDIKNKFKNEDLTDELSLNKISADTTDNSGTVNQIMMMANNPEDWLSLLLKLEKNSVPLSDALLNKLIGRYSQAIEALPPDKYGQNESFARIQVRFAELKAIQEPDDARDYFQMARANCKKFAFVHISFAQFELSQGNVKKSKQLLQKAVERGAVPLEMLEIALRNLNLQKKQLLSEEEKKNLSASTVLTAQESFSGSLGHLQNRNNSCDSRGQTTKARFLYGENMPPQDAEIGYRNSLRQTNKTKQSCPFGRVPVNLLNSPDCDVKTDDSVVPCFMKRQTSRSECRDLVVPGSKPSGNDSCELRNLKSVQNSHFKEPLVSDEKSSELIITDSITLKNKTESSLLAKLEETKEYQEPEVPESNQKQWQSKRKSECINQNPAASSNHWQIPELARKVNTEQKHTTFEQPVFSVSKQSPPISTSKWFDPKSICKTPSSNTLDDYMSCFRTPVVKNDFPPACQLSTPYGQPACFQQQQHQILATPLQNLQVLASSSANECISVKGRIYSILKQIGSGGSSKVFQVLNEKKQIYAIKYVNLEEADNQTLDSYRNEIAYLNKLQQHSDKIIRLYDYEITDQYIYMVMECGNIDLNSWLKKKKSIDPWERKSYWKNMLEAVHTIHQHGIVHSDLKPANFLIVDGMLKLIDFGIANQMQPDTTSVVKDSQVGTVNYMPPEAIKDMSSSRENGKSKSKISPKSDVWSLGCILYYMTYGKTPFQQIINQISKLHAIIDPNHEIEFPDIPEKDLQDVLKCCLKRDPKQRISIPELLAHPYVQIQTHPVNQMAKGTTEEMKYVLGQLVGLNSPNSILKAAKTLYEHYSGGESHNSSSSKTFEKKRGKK

[2] = biological target: T2, Dual specificity protein kinase TTK (Homo sapiens) (UniProt P33981); conditions: dose 100.0 nM
T2 sequence (whole entry): T1 sequence (P33981 whole entry)

[3] = biological target: Mitogen-activated protein kinase 10 (Homo sapiens) (UniProt P53779); assay: Inhibition of JNK3 (unknown origin) relative to control; conditions: concentration not given here
Mitogen-activated protein kinase 10 (Homo sapiens), sequence (P53779 whole entry): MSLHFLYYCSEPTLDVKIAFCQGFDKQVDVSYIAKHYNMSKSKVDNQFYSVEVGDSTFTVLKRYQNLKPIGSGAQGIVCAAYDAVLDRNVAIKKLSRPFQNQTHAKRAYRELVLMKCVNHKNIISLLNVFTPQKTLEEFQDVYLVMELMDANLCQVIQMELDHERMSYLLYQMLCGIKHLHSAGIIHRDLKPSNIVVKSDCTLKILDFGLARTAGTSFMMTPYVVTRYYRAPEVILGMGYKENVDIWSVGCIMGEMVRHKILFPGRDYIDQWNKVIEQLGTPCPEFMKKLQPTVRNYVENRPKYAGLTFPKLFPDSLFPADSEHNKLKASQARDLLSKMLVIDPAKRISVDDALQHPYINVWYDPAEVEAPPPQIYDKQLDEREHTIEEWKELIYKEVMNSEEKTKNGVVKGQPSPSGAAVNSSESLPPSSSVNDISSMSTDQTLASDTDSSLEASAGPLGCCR

[4] = biological target: Mitogen-activated protein kinase 9 (Homo sapiens) (UniProt P45984); assay: Inhibition of JNK2 (unknown origin) relative to control; conditions: concentration not given here
Mitogen-activated protein kinase 9 (Homo sapiens), sequence (P45984 whole entry, looked up): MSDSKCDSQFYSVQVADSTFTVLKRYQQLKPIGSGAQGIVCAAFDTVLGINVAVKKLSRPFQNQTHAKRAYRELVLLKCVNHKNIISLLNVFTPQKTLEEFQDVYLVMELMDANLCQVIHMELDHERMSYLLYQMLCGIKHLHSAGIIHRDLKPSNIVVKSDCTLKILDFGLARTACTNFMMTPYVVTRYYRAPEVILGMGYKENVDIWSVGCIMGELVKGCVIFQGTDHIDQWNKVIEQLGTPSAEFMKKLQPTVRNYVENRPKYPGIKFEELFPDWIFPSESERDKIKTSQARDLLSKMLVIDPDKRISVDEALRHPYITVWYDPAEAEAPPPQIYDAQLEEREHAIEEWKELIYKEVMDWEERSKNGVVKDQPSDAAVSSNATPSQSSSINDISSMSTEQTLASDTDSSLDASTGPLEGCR

[5] = biological target: T3, Serine/threonine-protein kinase NLK (Homo sapiens) (UniProt Q9UBE8); assay: Inhibition of NLK (unknown origin) relative to control; conditions: concentration not given here
T3 sequence (whole entry): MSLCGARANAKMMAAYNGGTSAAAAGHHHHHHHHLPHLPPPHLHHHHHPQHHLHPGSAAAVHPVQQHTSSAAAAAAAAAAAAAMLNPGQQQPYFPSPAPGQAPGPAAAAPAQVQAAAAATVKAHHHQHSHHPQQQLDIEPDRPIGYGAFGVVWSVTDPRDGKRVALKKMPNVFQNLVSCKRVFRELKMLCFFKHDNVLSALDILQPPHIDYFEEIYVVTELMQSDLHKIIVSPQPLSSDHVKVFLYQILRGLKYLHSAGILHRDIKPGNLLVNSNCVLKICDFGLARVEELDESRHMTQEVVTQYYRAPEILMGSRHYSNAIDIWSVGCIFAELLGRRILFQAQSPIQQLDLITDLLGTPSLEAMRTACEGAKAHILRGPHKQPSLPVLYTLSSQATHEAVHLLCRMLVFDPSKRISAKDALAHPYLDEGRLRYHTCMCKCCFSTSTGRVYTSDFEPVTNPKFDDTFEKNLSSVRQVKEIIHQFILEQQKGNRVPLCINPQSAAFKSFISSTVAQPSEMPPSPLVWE

Structure (SMILES): CN1CCC(c2ccc(Nc3ncc4c(n3)-n3ccc(C(N)=O)c3CC4)cc2)CC1
- IC50 [1]: 7.6 nM

Structure (SMILES): CCc1n[nH]c(CC)c1NC(=O)c1ccn2c1CCc1cnc(Nc3ccc(N4CCN(C)CC4)cc3OC)nc1-2
- IC50 [1]: 1.2 nM
- inhibition [2]: > 90%

Structure (SMILES): Cn1cc(-c2cc3cnc(Nc4ccc(-c5cncn5C)cc4Cl)cc3n2C(=O)OC(C)(C)C)cn1
- inhibition [3]: 80%
- inhibition [4]: 80%
- inhibition [5]: 80%

Structure (SMILES): CCc1nn(CCOCCOC)c(CC)c1NC(=O)c1ccn2c1CCc1cnc(Nc3ccc(N4CCN(C)CC4)cc3OC)nc1-2
- inhibition [2]: > 90%
